From ChEMBL document CHEMBL4673321, “15β-Senecioyl-oxy-ent-kaur-16-en-19-oic Acid, a Diterpene Isolated from Baccharis lateralis, as Promising Oral Compound for the Treatment of Schistosomiasis” (J Nat Prod, 2020)
Active and inactive are the calls of the source. No cut-off for these calls is given here.

Experiments:
[1] = Selectivity index, ratio of CC50 for cytotoxicity against human HaCaT cells to LC50 for antischistosomal activity against Schistosoma mansoni BH; type: toxicity, cell-based; conditions: read-out: Selectivity Index
[2] = Selectivity index, ratio of CC50 for cytotoxicity against human SH-SY5Y cells to LC50 for antischistosomal activity against Schistosoma mansoni BH; type: toxicity, cell-based; conditions: read-out: Selectivity Index
[3] = Cytotoxicity against human SH-SY5Y cells assessed as reduction in cell viability after 48 hrs by MTT assay; type: cell-based
Schistosoma mansoni [4] = assay: Antischistosomal activity against Schistosoma mansoni BH assessed as reduction in parasitic viability at 25 uM after 24 hrs inverted light microscopic method; type: functional, organism-based
[5] = Cytotoxicity against human HaCaT cells assessed as reduction in cell viability after 48 hrs by MTT assay; type: cell-based
Schistosoma mansoni [6] = assay: Antischistosomal activity against female Schistosoma mansoni BH assessed as dilation of ovaries at 25 uM after 72 hrs microscopic method; type: functional, organism-based
Schistosoma mansoni [7] = assay: Antischistosomal activity against male Schistosoma mansoni BH assessed as dilation of testes at 25 uM after 72 hrs microscopic method; type: functional, organism-based
Schistosoma mansoni [8] = assay: Antischistosomal activity against Schistosoma mansoni BH assessed as reduction in parasitic viability after 72 hrs by inverted microscopic method; type: functional
Schistosoma mansoni [9] = assay: Antischistosomal activity against Schistosoma mansoni BH assessed as reduction in oviposition at 25 uM after 72 hrs light microscopic method; type: functional, organism-based
Schistosoma mansoni [10] = assay: Antischistosomal activity against Schistosoma mansoni BH cercariae infected in mouse assessed as reduction in egg burden in fecal at 400 mg/kg, po administered as dose starting on day 49 post-infection and measured after 14 days post treatment relative to control; type: functional; design: scale not given: the % may be the effect or the level left; conditions: time 14 day
Schistosoma mansoni [11] = assay: Antischistosomal activity against Schistosoma mansoni BH cercariae infected in mouse assessed as reduction in egg burden in wall of intestine at 400 mg/kg, po administered as dose starting on day 49 post-infection and measured after 14 days post treatment relative to control; type: functional; design: scale not given: the % may be the effect or the level left; conditions: time 14 day
Schistosoma mansoni [12] = assay: Antischistosomal activity against Schistosoma mansoni BH cercariae infected in mouse assessed as reduction in worm burden at 400 mg/kg, po administered as single dose starting on day 49 post-infection and measured after 14 days post treatment relative to control; type: functional; design: scale not given: the % may be the effect or the level left; conditions: time 14 day
[13] = Toxicity in mouse infected with Schistosoma mansoni BH cercariae at 400 mg/kg, po after 14 days administered as dose starting on day 49 post-infection and measured after 14 days; type: organism-based; conditions: in vivo, 336 h, time 14 day
Schistosoma mansoni [14] = assay: Antischistosomal activity against Schistosoma mansoni BH assessed as reduction in oviposition at 6.25 to 25 uM after 72 hrs light microscopic method; type: functional, organism-based; conditions: dose 6.25-25 µM
Schistosoma mansoni [15] = assay: Antischistosomal activity against Schistosoma mansoni BH cercariae infected in mouse assessed as reduction in liver weight at 400 mg/kg, po administered as dose starting on day 49 post-infection and measured after 14 days post treatment relative to control; type: functional; design: scale not given: the % may be the effect or the level left; conditions: time 14 day
Schistosoma mansoni [16] = assay: Antischistosomal activity against Schistosoma mansoni BH cercariae infected in mouse assessed as reduction in spleen weight at 400 mg/kg, po administered as dose starting on day 49 post-infection and measured after 14 days post treatment relative to control; type: functional; design: scale not given: the % may be the effect or the level left; conditions: time 14 day

## C=C1C[C@@]23CC[C@H]4[C@@](C)(CCC[C@@]4(C)C(=O)O)[C@@H]2CC[C@@H]1C3 [KAURENOIC ACID]
[1]
  selectivity ratio: 4.2
[2]
  selectivity ratio: 1.7
[3]
  CC50 at 48 h: 45.4 µM
Schistosoma mansoni [4]
  Activity: Active
[5]
  CC50 at 48 h: 109 µM
Schistosoma mansoni [6]
  Activity: inactive
Schistosoma mansoni [7]
  Activity: inactive
Schistosoma mansoni [8]
  LC50: 26.1 µM
Schistosoma mansoni [9]
  Activity: Active

## C=C1[C@@H]2CC[C@H]3[C@]4(C)CCC[C@@](C)(C(=O)O)[C@H]4CC[C@]3(C2)[C@H]1OC(=O)C=C(C)C
Schistosoma mansoni [10]
  Activity: 71.6%
Schistosoma mansoni [11]
  Activity: 69.2%
[1]
  selectivity ratio: 12.7
Schistosoma mansoni [12]
  Activity: 61.9%
[2]
  selectivity ratio: 9.1
[3]
  CC50 at 48 h: 106 µM
Schistosoma mansoni [4]
  Activity: Active
[5]
  CC50 at 48 h: 147 µM
[13]
  Activity: Non-Toxic
Schistosoma mansoni [6]
  Activity: Active
Schistosoma mansoni [7]
  Activity: Active
Schistosoma mansoni [8]
  LC50: 11.6 µM
Schistosoma mansoni [14]
  Activity: Active
Schistosoma mansoni [15]
  Activity: 23.5%
Schistosoma mansoni [16]
  Activity: 29.8%

## O=C(C1CCCCC1)N1CC(=O)N2CCc3ccccc3C2C1 (stereo not given) [PRAZIQUANTEL]
[1]
  selectivity ratio: > 180
Schistosoma mansoni [12]
  Activity: 91.1%
[2]
  selectivity ratio: > 180
[3]
  CC50 at 48 h: > 200 µM
[5]
  CC50 at 48 h: > 200 µM
Schistosoma mansoni [8]
  LC50: 1.1 µM
